# Results published in patent US20260224674A1, “COMPOSITIONS COMPRISING PEDF-DERIVED SHORT PEPTIDES AND MESENCHYMAL STEM CELLS FOR BONE/CARTILAGE REGENERATION” (BRIM Biotechnology, Inc., priority 2022, published 2026).
# Experiments:
# [1] = test system: ACLT surgery induced osteoarthritis mouse model; assay: OARSI histologic scoring of cartilage degradation in ACLT surgery induced OA murine model; format: in vivo
# Method: (§1) The OA murine model is induced by anterior cruciate ligament (ACLT) surgery. In brief, a medial arthrotomy was performed. With the knee in full flexion, the patella was dislocated laterally, the anterior cruciate ligament (ACLT) was transected, and then the wounds were closed.
# (§2) The ACLT surgery was performed on the unilateral knees of each mouse for 2 months prior to the treatments. Twenty mice were randomly divided into 5 groups: (i) non-treated group [n=3]; (ii) vehicle-treated group [n=4]; (iii) PDSP-treated group [n=5], (iv) vehicle combined with IPFP-MSC-treated group [n=3]; (v) PDSP combined with IPFP-MSC-treated group [n=5] in ACLT surgery induced OA groups, while the knees without surgery serve as sham-operated group [n=4]. At eight weeks after ACLT surgery (first injection), the knee joints of the non-treated, vehicle-treated, or PDSP-treated groups were intra-articular injected, respectively, with 0.01 mL PBS, vehicle, or PDSP, while those of the vehicle or PDSP combined with IPFP-MSC groups were injected with hMSCs in 0.01 mL. MSCs were intra-articular injected at the first treatment only (i.e., at 8 weeks). For the second treatments (two weeks after MSC injections or 10 weeks after ACLT surgery), those of the vehicle or PDSP combined with IPFP-MSC injection groups were injected with 0.01 mL vehicle or PDSP. […]
# type II collagen = assay: Type II collagen immunohistochemistry (IHC) staining of the murine knee joint; format: in vivo, mouse; conditions: ACLT surgery induced OA mice; compared with non-treated and vehicle-treated OA groups
# Method: as §1, §2
# [2] = test system: human bone marrow-derived mesenchymal stem cells (hBM-MSC); assay: hBM-MSC spheroid chondrogenesis, Alcian Blue staining at day 14; format: cell-based; conditions: PDSP 10 μM, chondrogenic differentiation medium with TGFβ1 10 ng/ml
# Method: To shed light on possible mechanisms for the effects of PDSP chondrogenesis, further experiments were conducted to assess the effects of PDSP on MSC. The MSC used in this study are human bone marrow-derived mesenchymal stem cells (hBM-MSC) from Gibco (StemPro™ BM Mesenchymal Stem Cells). […] Human bone marrow MSC spheroids were cultured with chondrogenic differentiation medium, with or without TGFβ1 and with or without PDSP. The media were changed every 3 days. On day 14, the cartilage spheroids were collected for evaluation. The various media compositions are as follows (the base medium is a high-glucose DMEM supplemented with 1×10^−7M dexamethasone, 1×10^−3M sodium pyruvate, 1.7×10^−4M L-ascorbic acid-2-phosphate, 3.5×10^−4M proline, 5 mL ITS+Premix in 500 mL medium, and 1% antibiotic): […]
# type X collagen = assay: Type X collagen immunohistochemistry (IHC) staining of the murine knee joint; format: in vivo, mouse; conditions: ACLT surgery induced OA mice
# Method: as §1, §2
# [3] = test system: ACLT surgery induced osteoarthritis mouse model; assay: Safranin O and H&E histological staining of the murine knee joints; format: in vivo; conditions: ACLT surgery induced OA mice; compared with non-treated OA groups
# Method: as §1, §2
sequence,measurement,setting,value
"SLGAEQRTESIIHRALYYDLISSPDIHGT (listed as Homo sapiens) [PDSP, PEDF-derived short peptide]",OARSI scores,"[1]; ACLT surgery induced OA groups, text values with their spread (SEM per Table 2)",3.47±0.19
same,"The histologic scoring of murine OA (OARSI score), Average","[1]; ACLT surgery induced osteoarthritis mice, intra-articular injection at 8 and 10 weeks after surgery, average over animals",3.47
same,Expression of type II collagen (IHC),type II collagen,increased
same,Cartilage spheroids size (total area),[2],increase the cartilage spheroids size
same,Chondrogenesis (Alcian blue positive area; differentiation of hBM-MSC into chondrocytes),[2],promote chondrogenesis
same,Type X collagen signals (IHC),type X collagen,decreased
same,Cartilage loss and surface irregularity in the medial and lateral compartments (safranin O and H&E staining),[3],less cartilage loss and surface irregularity
